Assay results reported in PubChem BioAssay (NCI).
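Each compound was tested at five concentrations against cells in 96-well plates for 48 hours. TGI denotes the concentration required for complete inhibition of growth.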

Experiments:
Assay in all cases: inhibition of tumour cell growth, NCI panel, 48 h
786-0 renal = system: 786-0 renal
A498 renal = system: A498 renal
A549 NSCLC = system: A549 NSCLC
ACHN renal = system: ACHN renal
BT-549 breast = system: BT-549 breast
CAKI-1 renal = system: CAKI-1 renal
CCRF-CEM leukemia = system: CCRF-CEM leukemia
COLO 205 colon = system: COLO 205 colon
DU-145 prostate = system: DU-145 prostate
EKVX NSCLC = system: EKVX NSCLC
HCT-116 colon = system: HCT-116 colon
HCT-15 colon = system: HCT-15 colon
HL-60(TB) leukemia = system: HL-60(TB) leukemia
HOP-62 NSCLC = system: HOP-62 NSCLC
HOP-92 NSCLC = system: HOP-92 NSCLC
HS 578T breast = system: HS 578T breast
HT29 colon = system: HT29 colon
IGROV1 ovarian = system: IGROV1 ovarian
K-562 leukemia = system: K-562 leukemia
KM12 colon = system: KM12 colon
LOX IMVI melanoma = system: LOX IMVI melanoma
M14 melanoma = system: M14 melanoma
MALME-3M melanoma = system: MALME-3M melanoma
MCF7 breast = system: MCF7 breast
MDA-MB-231 breast = system: MDA-MB-231 breast
MDA-MB-435 = system: MDA-MB-435
MDA-N = system: MDA-N
MOLT-4 leukemia = system: MOLT-4 leukemia
NCI-H226 lung = system: NCI-H226 lung
NCI-H23 lung = system: NCI-H23 lung
NCI-H460 lung = system: NCI-H460 lung
NCI-H522 lung = system: NCI-H522 lung
NCI/ADR-RES ovarian = system: NCI/ADR-RES ovarian
OVCAR-3 ovarian = system: OVCAR-3 ovarian
OVCAR-4 ovarian = system: OVCAR-4 ovarian
OVCAR-5 ovarian = system: OVCAR-5 ovarian
OVCAR-8 ovarian = system: OVCAR-8 ovarian
PC-3 prostate = system: PC-3 prostate
RPMI-8226 leukemia = system: RPMI-8226 leukemia
RXF 393 renal = system: RXF 393 renal
SF-268 CNS = system: SF-268 CNS
SF-295 CNS = system: SF-295 CNS
SF-539 CNS = system: SF-539 CNS
SK-MEL-2 melanoma = system: SK-MEL-2 melanoma
SK-MEL-28 melanoma = system: SK-MEL-28 melanoma
SK-MEL-5 melanoma = system: SK-MEL-5 melanoma
SK-OV-3 ovarian = system: SK-OV-3 ovarian
SN12C renal = system: SN12C renal
SNB-19 CNS = system: SNB-19 CNS
SR leukemia = system: SR leukemia
SW-620 colon = system: SW-620 colon
T-47D breast = system: T-47D breast
TK-10 renal = system: TK-10 renal
U251 CNS = system: U251 CNS
UACC-257 melanoma = system: UACC-257 melanoma
UACC-62 melanoma = system: UACC-62 melanoma
UO-31 renal = system: UO-31 renal
HCC-2998 colon = system: HCC-2998 colon
SNB-75 CNS = system: SNB-75 CNS

Measured: TGI

NNS(=O)(=O)c1cc(C(=O)O)cc(C(=O)O)c1
not listed: HCC-2998 colon | SNB-75 CNS
> 100 µM: all other assays above

Nc1ccc2c(c1)NC(=O)[C@@H]1CCCN1C2=O
not listed: MALME-3M melanoma
> 100 µM: all other assays above
